Experimental data as given in PubChem BioAssay AID248 (DTP/NCI, 2004).
Where “and” joins values, the source holds several entries; their conditions need not be identical. Equal entries are not always repeated. Inconclusive results and toxic doses are left out. Cut-off read from the data, not from the text of the source: active = T/C of 150% or more; inactive = T/C below 125%.

System: L1210 leukemia ip in BDF1 mice, survival T/C
Assay: NCI In Vivo Anticancer Drug Screen. Data for tumor model L1210 Leukemia (intraperitoneal) in B6D2F1 (BDF1) mice
Details: endpoint: mean survival time, higher = longer survival
In short: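 Value reflects the ratio of survival in compound-treated mice to survival in vehicle-treated controls, with both groups carrying the same transplanted tumor.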

[1] = dose: 100.0 mg/kg/injection, schedule: Q04DX003 (ip), vehicle: saline with Tween-80
[2] = dose: 200.0 mg/kg/injection, schedule: Q04DX003 (ip), vehicle: saline with Tween-80
[3] = dose: 400.0 mg/kg/injection, schedule: Q04DX003 (ip), vehicle: saline with Tween-80
[4] = dose: 100.0 mg/kg/injection, schedule: Q01DX009 (ip), vehicle: saline with Tween-80
[5] = dose: 200.0 mg/kg/injection, schedule: Q01DX009 (ip), vehicle: saline with Tween-80
[6] = dose: 400.0 mg/kg/injection, schedule: Q01DX009 (ip), vehicle: saline with Tween-80
[7] = dose: 100.0 mg/kg/injection, schedule: Q04DX002 (ip), vehicle: Klucel (hydroxypropylcellulose) (HPC)
[8] = dose: 200.0 mg/kg/injection, schedule: Q04DX002 (ip), vehicle: Klucel (hydroxypropylcellulose) (HPC)
[9] = dose: 400.0 mg/kg/injection, schedule: Q04DX002 (ip), vehicle: Klucel (hydroxypropylcellulose) (HPC)

Measured: T/C

CCCCNc1ccc([N+](=O)[O-])cc1[N+](=O)[O-]
inactive: dose: 50.0 mg/kg/injection, schedule: Q01DX009 (ip), vehicle: other 104 % of control | dose: 100.0 mg/kg/injection, schedule: Q01DX009 (ip), vehicle: other 93 % of control | dose: 100.0 mg/kg/injection, schedule: Q04DX003 (ip), vehicle: other 104 % of control | dose: 200.0 mg/kg/injection, schedule: Q01DX009 (ip), vehicle: other 104 % of control | dose: 200.0 mg/kg/injection, schedule: Q04DX003 (ip), vehicle: other 96 % of control

Nc1nc2ncc(CNc3ccc(C(=O)NC(CCC(=O)O)C(=O)O)nc3)nc2c(=O)[nH]1 (configuration not stated)
inactive: dose: 0.75 mg/kg/injection, schedule: Q01DX009 (ip), vehicle: alkali diluted with saline 105 % of control | dose: 1.5 mg/kg/injection, schedule: Q01DX009 (ip), vehicle: alkali diluted with saline 102 % of control | dose: 3.0 mg/kg/injection, schedule: Q01DX009 (ip), vehicle: alkali diluted with saline 111 % of control | dose: 6.0 mg/kg/injection, schedule: Q01DX009 (ip), vehicle: alkali diluted with saline 102 % of control | dose: 12.0 mg/kg/injection, schedule: Q01DX009 (ip), vehicle: alkali diluted with saline 100 % of control | dose: 18.0 mg/kg/injection, schedule: Q01DX009 (ip), vehicle: alkali diluted with saline 112 % of control | dose: 24.0 mg/kg/injection, schedule: Q01DX009 (ip), vehicle: alkali diluted with saline 108 % of control | dose: 36.0 mg/kg/injection, schedule: Q01DX009 (ip), vehicle: alkali diluted with saline 108 % of control | dose: 48.0 mg/kg/injection, schedule: Q01DX009 (ip), vehicle: alkali diluted with saline 118 % of control | dose: 75.0 mg/kg/injection, schedule: Q01DX001 (ip), vehicle: alkali diluted with saline 111 % of control | dose: 150.0 mg/kg/injection, schedule: Q01DX001 (ip), vehicle: alkali diluted with saline 105 % of control

c1ccc(/C(N=NC(c2ccccc2)(c2ccccc2)c2ccccc2)=C(/N=NC(c2ccccc2)(c2ccccc2)c2ccccc2)c2ccccc2)cc1
inactive: dose: 100.0 mg/kg/injection, schedule: Q01DX009 (ip), vehicle: saline sonified 94 % of control | dose: 200.0 mg/kg/injection, schedule: Q01DX009 (ip), vehicle: saline sonified 97 % of control | dose: 400.0 mg/kg/injection, schedule: Q01DX009 (ip), vehicle: saline sonified 94 % of control

COC(=O)c1cncn1C(C)c1ccccc1 (configuration not stated)
inactive: dose: 25.0 mg/kg/injection, schedule: Q04DX003 (ip), vehicle: saline 97 % of control | dose: 50.0 mg/kg/injection, schedule: Q01DX009 (ip), vehicle: saline 104 % of control | dose: 50.0 mg/kg/injection, schedule: Q04DX003 (ip), vehicle: saline 95 % of control | dose: 100.0 mg/kg/injection, schedule: Q01DX009 (ip), vehicle: saline 109 % of control | dose: 100.0 mg/kg/injection, schedule: Q04DX003 (ip), vehicle: saline 97 % of control and 101 % of control

CNS(=O)(=O)CCC(N)C(=O)O (configuration not stated)
inactive: [1] 97 % of control | [2] 103 % of control | [3] 97 % of control

Cc1ccc(C)n1CCO
inactive: dose: 44.0 mg/kg/injection, schedule: Q01DX Z (ip), vehicle: saline 106 % of control | dose: 66.0 mg/kg/injection, schedule: Q01DX Z (ip), vehicle: saline 94 % of control | dose: 100.0 mg/kg/injection, schedule: Q01DX Z (ip), vehicle: saline 96 % of control

CC1(C)CNC2OC1NCC2(C)C
inactive: dose: 100.0 mg/kg/injection, schedule: Q01DX001 (ip), vehicle: saline sonified 112 % of control | dose: 200.0 mg/kg/injection, schedule: Q01DX001 (ip), vehicle: saline sonified 89 % of control | dose: 400.0 mg/kg/injection, schedule: Q01DX001 (ip), vehicle: saline sonified 95 % of control

O=[N+]([O-])c1cc([N+](=O)[O-])c(Cl)s1
inactive: dose: 12.5 mg/kg/injection, schedule: Q01DX009 (ip), vehicle: saline with Tween-80 97 % of control | dose: 25.0 mg/kg/injection, schedule: Q01DX009 (ip), vehicle: saline with Tween-80 91 % of control

CCOCc1c(COc2ccc(Br)cc2)n(CC)c2ccccc12
inactive: [4] 93 % of control | [5] 90 % of control | [6] 90 % of control

O=C1CCCCC1O (configuration not stated)
inactive: dose: 100.0 mg/kg/injection, schedule: Q01DX001 (ip), vehicle: other 116 % of control | dose: 200.0 mg/kg/injection, schedule: Q01DX001 (ip), vehicle: other 103 % of control | dose: 400.0 mg/kg/injection, schedule: Q01DX001 (ip), vehicle: other 95 % of control

O=C(O)c1ccc(=O)[nH]n1
inactive: [7] 115 % of control | [8] 93 % of control | [9] 89 % of control

C/C=C(\C)C(=NC)Nc1ccc(Cl)c(Cl)c1
inactive: dose: 222.0 mg/kg/injection, schedule: Q01DX Z (ip), vehicle: methylcellulose (MC) 94 % of control | dose: 333.0 mg/kg/injection, schedule: Q01DX Z (ip), vehicle: methylcellulose (MC) 90 % of control

CCOP(=O)(OCC)/C(C#N)=C\c1ccc(OC)c(OC)c1
inactive: [1] 97 % of control | [2] 92 % of control | [3] 92 % of control

Nc1ccc(Nc2ccc([N+](=O)[O-])cc2[N+](=O)[O-])cc1
inactive: dose: 50.0 mg/kg/injection, schedule: Q01DX009 (ip), vehicle: gum acacia 99 % of control | dose: 50.0 mg/kg/injection, schedule: Q04DX003 (ip), vehicle: gum acacia 100 % of control | dose: 100.0 mg/kg/injection, schedule: Q01DX009 (ip), vehicle: gum acacia 94 % of control | dose: 100.0 mg/kg/injection, schedule: Q04DX003 (ip), vehicle: gum acacia 101 % of control | dose: 200.0 mg/kg/injection, schedule: Q01DX009 (ip), vehicle: gum acacia 94 % of control | dose: 200.0 mg/kg/injection, schedule: Q04DX003 (ip), vehicle: gum acacia 98 % of control

Cc1ccc(S(=O)(=O)OC2CCC(=O)C3CC4(CCC23)OCCO4)cc1 (configuration not stated)
inactive: dose: 100.0 mg/kg/injection, schedule: Q01DX001 (ip), vehicle: saline with Tween-80 91 % of control | dose: 200.0 mg/kg/injection, schedule: Q01DX001 (ip), vehicle: saline with Tween-80 87 % of control | dose: 400.0 mg/kg/injection, schedule: Q01DX001 (ip), vehicle: saline with Tween-80 95 % of control

Nc1csnn1
inactive: dose: 50.0 mg/kg/injection, schedule: Q01DX001 (ip), vehicle: carboxymethylcellulose (CMC) 98 % of control | dose: 100.0 mg/kg/injection, schedule: Q01DX001 (ip), vehicle: carboxymethylcellulose (CMC) 96 % of control | dose: 200.0 mg/kg/injection, schedule: Q01DX001 (ip), vehicle: carboxymethylcellulose (CMC) 98 % of control

O=C(O)CCOc1ccccc1Cl
inactive: [4] 91 % of control | [7] 98 % of control | [5] 95 % of control | [8] 95 % of control | [6] 93 % of control | [9] 106 % of control
